# Experimental data reported in PMC12526212, “Novel Isolongifolenone-Based Caprolactam Derivatives as Potential Anticancer Agents via the p53/mTOR/Autophagy Pathway” (Molecules, 2025).
# How the values were obtained:
# MCF-7 cells [1] = assay: Annexin V/PI apoptosis assay by flow cytometry; assay type: cell-based, human; conditions: Figure 6A, in comparison with control
# Protocol: The ability of drugs to induce cancer cell apoptosis is a key indicator of their chemotherapeutic potential. […] To examine the apoptotic effects of E10, an Annexin V-FITC dual-staining assay (with flow cytometric analysis) was performed. As shown in Figure 3A (also Figure 3C), treatment with increasing concentrations of E10 induced a marked elevation in apoptotic cell populations.
# Autophagy has bidirectional regulation effects on cell survival. To confirm the role of autophagy in E10-induced cell death, 3-MA was used as an autophagy blocker.
# MCF-7 cells were seeded at a density of 6 × 10^5 cells per well in 12-well plates and incubated in a 37 °C, 5% CO2 incubator for 24 h. After treatment with different concentrations of compound E10, the cells were washed with PBS two times, collected by trypsin enzymic digestion and centrifugation, and the collected cells were subsequently stained with 5 µL Annexin V-APC (YSRIBIO-C1084) and 5 µL PI for 10 min in the dark conditions. The cell apoptosis was measured with the flow cytometry (BD), and the data were analyzed by flowjo 10.6 software.
# MCF-7 cells [2] = assay: Monodansylcadaverine (MDC) staining assay for autophagy; assay type: cell-based, human; conditions: 24 h, compared with control; 3-MA as co-treatment with E10
# Protocol: To investigate whether E10 induced autophagy in MCF-7 cells, we performed Monodansylcadaverine (MDC) staining, transmission electron microscopy (TEM), and Western blot analysis to evaluate autophagy-related markers. MDC is a fluorescent probe commonly used to detect the formation of autophagic vacuoles, as it specifically labels autophagosomes.
# MDC is a staining indicator for the formation of autophagosome. MCF-7 cells were seeded at a density of 2 × 10^5 cells per well in 6-well plates. MCF-7 cells were inoculated into a 6-well plate, and the cells were treated with E10 for 24 h. The treated cells were washed twice with buffer and then stained with MDC (Beijing Solarbio Science & Technology Co., Ltd., Beijing, China) for 40 min. The cells were then detected under a fluorescence microscope (Carl Zeiss, Jena, Germany).
structure (smiles),measurement,setting,value
"Cn1cnc(N)c2ncnc1-2 [3-MA, 3-methyladenine, reference compound]",cell apoptosis with or without autophagy blocker 3-MA,MCF-7 cells [1],reversed E10-induced apoptosis
same,"MDC staining, autophagosome formation",MCF-7 cells [2],marked reduction in fluorescence intensity
